Where “and” joins values, the source holds several entries; their conditions need not be identical. Equal entries are not always repeated. Entries after “also recorded” stand apart in the source; their conditions may differ.
Experiments:
sAPPα = experiment: plasma sAPPα by ELISA pre- and post-acamprosate; assay type: in vivo, human
Description: Test plasma samples are measured soon after collection. When necessary test samples of plasma were frozen but not subjected to repeated freeze/thaw cycles. The test samples were thawed just before use at a low temperature and mixed them completely. If necessary, the plasma samples can be diluted appropriately with the EIA buffer, and assay may be performed in duplicate measurements for the test samples and standards. Test samples in neutral pH range were used, and steps were taken to avoid the contamination with of organic solvents. Regarding the standard to quantify the sAPPα levels, a series of sAPPα standards in EIA buffer by serial dilutions, from 0.78 ng/mL to 50 ng/mL were prepared.
The ELISA plates were pre-coated with anti-human sAPPα(2B3) mouse IgG-monoclonal affinity purified (IBL). First, the wells for the reagent blank were determined, and 100 μL each of “EIA buffer” or 10 mM NaHCO3 (pH9.5) buffer was placed into each of the wells. Likewise, wells were assigned for test sample blanks, test samples and diluted standards. Next, 100 μL each of test sample blank, test sample and dilutions of standard was added to into the appropriate wells. The test sample included the plasma sample from each subject, which may vary from 5-25 μl, made up to 100 μL with the EIA buffer. The pre-coated plate was incubated overnight at 4° C. after covering it tightly with a plate lid. The plate was kept onto a rocker with gentle shaking Next day, each well of the pre-coated plate was vigorously washed with wash buffer containing 0.05% Tween 20 in phosphate buffer. This was done by filling each well with the wash buffer, leaving the pre-coated plate laid for 15-30 seconds and removing wash buffer completely from the plate by snapping. This procedure was repeated five times. After removing the remaining liquid from all wells completely by snapping the plate onto paper towel, 100 μL of labeled antibody solution was added into the wells of test samples, diluted standard and test sample blank. HRP-conjugated and labeled anti-Human APP (R101A4) mouse IgG from IBL was used. Each plate was incubated for 30 minutes at 4° C. after covering it with plate lid, and then washed the plate 5 times in the same manner as described before. To develop the color, 100 μL of the Chromogen (TMB solution) was added to into the wells, and the plate was incubated for 30 minutes at room temperature in the dark. When the liquid started turning blue (by addition of the Chromogen), 100 μL of the Stop solution (1N H2SO4) was added into the wells. The liquid was mixed by tapping the side of plate, and the liquid turned yellow by addition of the Stop solution. […] A plate reader was used and measurements were conducted measurement at 450 nm against a reagent blank. […]

[1] = safety and adverse effects in the 12-week trial in youth with autistic disorder; assay type: in vivo, human; conditions: nine youth with autistic disorder receiving acamprosate
Description: A 12-week single-blind, placebo-controlled trial of the effect of acamprosate in the treatment of 12 youths with autistic disorder aged 5 to 17 years was carried out. In order to pilot test use of acamprosate in youth with autism targeting core social impairment, was conducted. All subjects and their family members were blinded to treatment status. All subjects participated in a 2 week placebo-lead-in phase prior to 10 weeks of treatment with acamprosate. For this project, enteric coated commercially available 333 mg acamprosate pills were over-encapsulated and identical matching placebo manufactured for the project. Placebo-responders, defined by a Clinical Global Impressions Improvement scale (CGI-I) score of 1 “very much improved” or 2 “much improved” (ratings anchored to core social deficits) at week 2 were asked to exit the study. During active treatment with acamprosate, dosing was increased in 333 mg increments per week over the first six weeks of active treatment to a maximum dose of 1,332 mg/day (weight<5 60 kg) or 1,998 mg/day (weight>60 kg). During the final four weeks of active drug treatment, subjects were maintained on a stable highest tolerated (optimal) dose. The primary outcome measure was the clinician-rated CGI-I anchored to symptoms of social impairment. […]

NMDA glutamate receptor = conditions: animal studies; cited from earlier work

CC(=O)NCCCS(=O)(=O)O.[Ca] [acamprosate, Calcium Acetylhomotaurine]
fractional change in sAPPα-CP (sAPPα; individual patients 1-6, baseline to Week 12): −0.7108 and −0.3184 and 0 and −0.02825 and −0.5967 and −0.4596
sAPPα-CP, Week 12 (sAPPα; individual patients 1-6, titled as diagnosed with FXS, after treatment): 2.486 ng/mL and 5.056 ng/mL and 2.764 ng/mL and 4.778 ng/mL and 7.417 ng/mL and 2.694 ng/mL
mean sAPPα post-treatment (sAPPα; pooled 15 participants (9 FXS, 6 idiopathic ASD), pre-treatment 8.4±7.9 ng/mL, p=0.003): 5.5 ± 7.2 ng/mL
mean sAPPα levels at endpoint (sAPPα; six subjects of the 12-week trial, baseline 7.8 ng/mL, p=0.03): 4.2 ng/mL
overall tolerability [1]: well tolerated with no adverse effects leading to drug discontinuation or laboratory/vital sign abnormalities noted; also recorded: well tolerated with no adverse effects leading to drug discontinuation and no vital sign or safety laboratory changes noted
action at the NMDA glutamate receptor (NMDA glutamate receptor): bind and act as an antagonist
